According to publication PMC9926475 (ACS chemical neuroscience, 2022):
Like-named read-outs stand apart in the source and are kept apart here.

What was measured:
[1] = Pharmacokinetic studies in plasma and brain of mice after i.p. injection; format: in vivo, mouse; conditions: for Cmax (mean ± SEM) Brain: normalized to free base dose; for Sex-dependent difference: Brain Total exposure (AUC) / Sex-dependent difference: Plasma Total exposure (AUC): standard t-test, F female, M male, NS not statistically different
male mice = assay: Forced swim test immobility time 24 h after i.p. treatment; format: in vivo, mouse; conditions: for Minimal effective dose to reduce immobility time in the forced swim test: 24 h after injection; for Shape of dose response curve for forced swim test immobility: tested range up to 100 mg/kg
[2] = target: N-methyl-D-aspartate receptor (NMDAR); conditions: cited from earlier work
mice = conditions: i.p., cited from earlier work
[3] = i.p.; ref [4]; cited from earlier work
[4] = both sexes, i.p. 5 mg/kg, 10 min was the earliest time point

SMILES	Cmax (mean ± SEM) Brain ([1]; female CD-1 mice, i.p. 5 mg/kg)	B:P ratio (brain to plasma AUC ratio) ([1]; female mice, i.p. 5 mg/kg)	t1/2 Brain (terminal half-life) ([1]; female mice, i.p. 5 mg/kg)	t1/2 Plasma (terminal half-life) ([1]; female mice, i.p. 5 mg/kg)	Cmax (mean ± SEM) Brain ([1]; male CD-1 mice, i.p. 5 mg/kg)	B:P ratio (brain to plasma AUC ratio) ([1]; male mice, i.p. 5 mg/kg)	t1/2 Brain (terminal half-life) ([1]; male mice, i.p. 5 mg/kg)	t1/2 Plasma (terminal half-life) ([1]; male mice, i.p. 5 mg/kg)	Sex-dependent difference: Brain Total exposure (AUC) [1]	Sex-dependent difference: Plasma Total exposure (AUC) [1]	Minimal effective dose to reduce immobility time in the forced swim test (male mice)	also measured
N[C@]1(c2ccccc2Cl)C[C@@H](O)CCC1=O [(2S,4S)-HNK]	234 ± 10.9 ng/g•mg/kg	0.9	35 min	42 min	127 ± 9.5 ng/g•mg/kg	0.7	34 min	39 min	F > M	F > M	–	–
N[C@]1(c2ccccc2Cl)CC[C@@H](O)CC1=O [(2S,5R)-HNK]	258 ± 15.4 ng/g•mg/kg	1.0	31 min	28 min	242 ± 9.8 ng/g•mg/kg	0.7	40 min	37 min	M > F	M > F	–	Tmax brain ([1]; male mice, i.p. 5 mg/kg): 30 min
N[C@]1(c2ccccc2Cl)CC[C@H](O)CC1=O [(2S,5S)-HNK]	129 ± 2.8 ng/g•mg/kg	1.3	17 min	34 min	138 ± 8.3 ng/g•mg/kg	1.2	16 min	27 min	–	–	–	Brain level at 4 h post-treatment ([1]; both sexes, i.p. 5 mg/kg, LLOQ 5.0 ng/ml): below LLOQs
N[C@]1(c2ccccc2Cl)CCC[C@@H](O)C1=O [(2S,6R)-HNK]	177 ± 19.8 ng/g•mg/kg	1.4	45 min	47 min	117 ± 30.6 ng/g•mg/kg	1.2	45 min	45 min	F > M	F > M	3 mg/kg	Brain Cmax and AUC compared to equivalent dosing with (2R,6R)-HNK ([1]; from Table 1): approximately three-fold lower; Shape of dose response curve for forced swim test immobility (male mice): U-shaped dose response curves; Ki ([2]; read-out: NMDAR binding affinity, ref [31]): > 100000 nM
N[C@]1(c2ccccc2Cl)CCC[C@H](O)C1=O [(2S,6S)-HNK, (2S,6S)-hydroxynorketamine]	993 ± 27.1 ng/g•mg/kg	1.2	44 min	46 min	712 ± 47.3 ng/g•mg/kg	1.0	41 min	44 min	F > M	F > M	30 mg/kg	Cmax and AUC, fold greater than those of (2R,6R)-HNK ([1]; male mice, equivalent doses): 2-3 fold; Shape of dose response curve for forced swim test immobility (male mice): did not demonstrate U-shaped dose responses; Lowest dose reducing forced swim test immobility time (mice; ref [4]): 25 mg/kg; Effect on forced swim test immobility time and measures of anhedonia following chronic stress (mice; mice, 20 mg/kg, ref [23]): reduced forced swim test immobility time and measures of anhedonia; Lowest dose reducing escape failures in the learned helplessness test [3]: 75 mg/kg
C[C@@H]1CC[C@@](N)(c2ccccc2Cl)C(=O)[C@@H]1O [(5R)-methyl-(2R,6R)-HNK, (5R)-methyl-(2R,6R)-hydroxynorketamine]	352 ± 22.4 ng/g•mg/kg	0.4	41 min	49 min	324 ± 13.0 ng/g•mg/kg	0.4	48 min	49 min	M > F	M > F	1 mg/kg	Brain to plasma AUC ratio ([1]; both sexes, i.p. 5 mg/kg): 0.4; Plasma elimination half-life ([1]; both sexes, i.p. 5 mg/kg): 49 min; Tmax brain [1, 4]: 10 min; Tmax plasma (time of observed maximal concentrations) [1, 4]: 10 min; Doses at which immobility time was reduced relative to vehicle (male mice; 24 h after treatment): 1 to 10 mg/kg
CNC1(c2ccccc2Cl)CCCCC1=O (centres unmarked) [ketamine, reference compound]	–	–	–	–	–	–	–	–	–	–	–	Ki ([2]; read-out: Ki, inhibitory actions on NMDARs, ref [19],[31],[32]): 250 to 1060 nM
